Legend:
[1] = tested on: male CD-1 mice; experiment: Mean arterial pressure after bile duct ligation in CD-1 mice; type: in vivo; conditions: BDL CD-1 mice, 10 mg/kg orally BID for 10 days, carotid catheter under isoflurane
Method: The experiments were performed on male CD-1 mice (10-11 week-old), purchased from Charles River Laboratories, MA. After arrival, the animals were housed in the Angion Biomedica animal care facility and allowed 5 days for acclimatization in room having an ambient temperature of 23±2° C. and 12 hr dark/light cycle. The animals were fed normal rodent chow and tap water was provided ad libitum. All the animal experimental protocols were approved by the Institutional Animal Care and Use Committee at the Angion Biomedica.
For bile duct ligation (BDL), we performed midline laparotomy of a length of approximately 1.5-2 cm by cutting the cutis plus fascia with a blunt end surgical scissor. The bile duct was then exposed by caudal movement of the gut. […] Animals were allowed to recover under heating pads and were monitored closely for signs of discomfort or pain.
After 24 hrs of bile duct ligation, the CD-1 mice (N=8-10 per group,) were treated with normal saline as vehicle and the Fasudil (10 mg/kg/body weight) and Compound of Ex. 1 (10 mg/kg body weight) groups were treated orally (BID) for 10 days. […] After 10 days of treatment, animals were anesthetized and mean arterial pressure was measured.
Mice were anaesthetized using isoflurane. […] The animals were maintained on heating pads throughout the surgery and temperature was recorded by inserting a temperature probe in the rectum. […]

[2] = molecular target: T1, ROCK1 (Homo sapiens, UniProt Q13464); experiment: KINOMEscan KdELECT kinase binding assay, ROCK1; conditions: equilibrium dissociation constant, 11-point 3-fold dilution series
T1 construct: purchased DiscoverX (KINOMEscan KdELECT service); host or cells: E. coli BL21-derived (T7 phage) or HEK-293
T1 sequence (Q13464 whole entry): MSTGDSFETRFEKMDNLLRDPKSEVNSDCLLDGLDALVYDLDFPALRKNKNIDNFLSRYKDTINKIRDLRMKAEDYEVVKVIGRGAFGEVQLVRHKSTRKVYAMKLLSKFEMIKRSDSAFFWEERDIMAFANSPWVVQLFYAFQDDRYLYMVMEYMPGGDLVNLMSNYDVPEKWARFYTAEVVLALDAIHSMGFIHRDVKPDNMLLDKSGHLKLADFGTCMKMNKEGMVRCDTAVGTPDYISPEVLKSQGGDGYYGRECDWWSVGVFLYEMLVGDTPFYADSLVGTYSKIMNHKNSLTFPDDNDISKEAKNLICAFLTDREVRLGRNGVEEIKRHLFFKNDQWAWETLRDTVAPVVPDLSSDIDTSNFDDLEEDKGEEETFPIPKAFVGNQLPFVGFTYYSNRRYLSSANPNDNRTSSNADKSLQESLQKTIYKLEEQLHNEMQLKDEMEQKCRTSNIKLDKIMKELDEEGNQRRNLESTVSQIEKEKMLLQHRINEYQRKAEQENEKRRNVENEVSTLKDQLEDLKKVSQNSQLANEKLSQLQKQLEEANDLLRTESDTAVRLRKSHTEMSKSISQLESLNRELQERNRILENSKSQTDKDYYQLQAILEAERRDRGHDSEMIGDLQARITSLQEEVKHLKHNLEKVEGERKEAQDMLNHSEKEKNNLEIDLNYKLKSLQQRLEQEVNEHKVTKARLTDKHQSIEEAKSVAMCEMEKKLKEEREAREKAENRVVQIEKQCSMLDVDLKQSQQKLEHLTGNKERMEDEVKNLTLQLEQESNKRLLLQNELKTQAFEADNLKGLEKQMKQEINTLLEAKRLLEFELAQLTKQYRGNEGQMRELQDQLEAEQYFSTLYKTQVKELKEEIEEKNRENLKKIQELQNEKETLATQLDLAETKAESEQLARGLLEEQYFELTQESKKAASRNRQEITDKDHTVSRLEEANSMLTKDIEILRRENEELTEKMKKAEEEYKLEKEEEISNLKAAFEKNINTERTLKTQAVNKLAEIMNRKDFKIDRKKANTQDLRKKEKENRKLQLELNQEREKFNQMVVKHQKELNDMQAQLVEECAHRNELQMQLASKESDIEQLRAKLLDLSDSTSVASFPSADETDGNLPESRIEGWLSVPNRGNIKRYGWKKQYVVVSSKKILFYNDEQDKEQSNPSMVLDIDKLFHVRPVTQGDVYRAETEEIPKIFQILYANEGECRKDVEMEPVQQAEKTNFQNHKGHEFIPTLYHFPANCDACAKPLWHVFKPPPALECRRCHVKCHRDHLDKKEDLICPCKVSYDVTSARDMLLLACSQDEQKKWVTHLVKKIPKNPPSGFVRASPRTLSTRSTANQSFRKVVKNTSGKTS
Method: (§1) The ROCK1 and ROCK2 kinase binding affinities of compounds in this invention were determined by DiscoverX's KINOMEscan™ KdELECT technology (https://www.discoverx.com/kinomescan-elect-kinase-screening-and-profiling-services): Kinase-tagged T7 phage strains were prepared in an E. coli host derived from the BL21 strain. E. coli were grown to log-phase and infected with T7 phage and incubated with shaking at 32° C. until lysis. The lysates were centrifuged and filtered to remove cell debris. The remaining kinases were produced in HEK-293 cells and subsequently tagged with DNA for qPCR detection. Streptavidin-coated magnetic beads were treated with biotinylated small molecule ligands for 30 minutes at room temperature to generate affinity resins for kinase assays. The liganded beads were blocked with excess biotin and washed with blocking buffer (SeaBlock (Pierce), 1% BSA, 0.05% Tween 20, 1 mM DTT) to remove unbound ligand and to reduce nonspecific binding. […] Test compounds were prepared as […] in 100% DMSO. Kds were determined using an […] 3-fold compound dilution series with three DMSO control points. […] The compounds were then diluted directly into the assays such that the final concentration of DMSO was 0.9%. All reactions performed in polypropylene 384-well plate. Each was a final volume of 0.02 ml. […] The kinase concentration in the eluates was measured by qPCR.

[3] = molecular target: T2, ROCK2 (Homo sapiens, UniProt O75116); experiment: KINOMEscan KdELECT kinase binding assay, ROCK2; conditions: equilibrium dissociation constant, 11-point 3-fold dilution series
T2 construct: purchased DiscoverX (KINOMEscan KdELECT service); host or cells: E. coli BL21-derived (T7 phage) or HEK-293
T2 sequence (O75116 whole entry): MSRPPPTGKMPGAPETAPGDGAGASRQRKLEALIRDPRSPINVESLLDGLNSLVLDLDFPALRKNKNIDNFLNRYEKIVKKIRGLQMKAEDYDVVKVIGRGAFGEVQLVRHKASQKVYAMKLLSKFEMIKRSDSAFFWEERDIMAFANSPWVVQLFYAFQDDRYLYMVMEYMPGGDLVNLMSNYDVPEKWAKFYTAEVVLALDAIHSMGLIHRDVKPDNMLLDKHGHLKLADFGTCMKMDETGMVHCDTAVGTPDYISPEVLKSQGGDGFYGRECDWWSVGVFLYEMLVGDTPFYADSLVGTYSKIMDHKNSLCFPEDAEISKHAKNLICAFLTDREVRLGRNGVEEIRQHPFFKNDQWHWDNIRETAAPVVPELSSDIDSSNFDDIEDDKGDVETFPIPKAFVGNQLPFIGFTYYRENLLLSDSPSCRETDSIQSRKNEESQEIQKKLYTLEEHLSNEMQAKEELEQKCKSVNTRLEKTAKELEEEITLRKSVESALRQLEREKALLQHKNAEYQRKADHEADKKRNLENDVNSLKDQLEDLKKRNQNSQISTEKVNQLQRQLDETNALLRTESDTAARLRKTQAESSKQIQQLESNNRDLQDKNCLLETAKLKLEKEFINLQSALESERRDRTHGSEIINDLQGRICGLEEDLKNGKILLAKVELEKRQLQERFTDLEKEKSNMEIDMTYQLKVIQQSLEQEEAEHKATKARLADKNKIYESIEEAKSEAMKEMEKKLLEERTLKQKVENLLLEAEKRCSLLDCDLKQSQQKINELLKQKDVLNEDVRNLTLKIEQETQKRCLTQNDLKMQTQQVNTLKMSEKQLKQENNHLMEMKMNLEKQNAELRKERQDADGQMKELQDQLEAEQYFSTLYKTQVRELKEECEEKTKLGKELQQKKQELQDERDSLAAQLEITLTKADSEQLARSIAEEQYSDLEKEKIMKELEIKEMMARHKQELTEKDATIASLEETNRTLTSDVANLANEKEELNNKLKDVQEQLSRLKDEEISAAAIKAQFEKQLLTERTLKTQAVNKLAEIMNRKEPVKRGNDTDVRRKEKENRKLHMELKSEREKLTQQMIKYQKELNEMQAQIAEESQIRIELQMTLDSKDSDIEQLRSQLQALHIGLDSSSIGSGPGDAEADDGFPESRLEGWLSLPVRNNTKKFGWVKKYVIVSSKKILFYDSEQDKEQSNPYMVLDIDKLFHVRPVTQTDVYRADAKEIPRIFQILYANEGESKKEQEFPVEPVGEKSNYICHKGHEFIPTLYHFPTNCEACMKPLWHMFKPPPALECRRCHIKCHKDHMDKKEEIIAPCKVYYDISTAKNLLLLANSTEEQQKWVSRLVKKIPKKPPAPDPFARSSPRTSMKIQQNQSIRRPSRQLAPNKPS
Method: as §1

[4] = tested on: BDL model, adult male C57BLU6 mice; experiment: Biliary obstruction model (bile duct ligation, BDL); type: in vivo; conditions: 10 mg/kg PO BID; for MAP (mean arterial pressure) versus sham and BDL+vehicle: BDL C57BLU6 mice, day 9, FIG. 1
Method: Adult male C57BLU6 mice were submitted to standard bile duct ligation (BDL model: Luo, W., Meng, Y., Ji, H. L., Pan, C. Q., Huang, S., Yu, C. H., Xiao, L. M., Cui, K., Ni, S. Y., Zhang, Z. S., Li, X. Spironolactone lowers portal hypertension by inhibiting liver fibrosis, ROCK-2 activity and activating NO/PKG pathway in the bile-duct-ligated rat. PLoS One 2012, 7(3), e34230) and treated with vehicle (n=7; 50% PEG300+10% tween 80+40% saline, the formulation for Ex. 1) or Ex. 1 (n=3; 10 mg/kg, PO, BID), starting a day after BDL surgery. In this study, animals were sacrificed 9 days after BDL. A subset of BDL animals was treated with fasudil (n=2; 10 mg/kg, PO, BID) to compare hemodynamic effects (on day 9) of a ROCK2-selective inhibitor vs. a dual ROCK1/2 inhibitor in this model of liver injury/disease. A sham group served as control.
The BDL model is a model of cholestatic injury and is associated with both inflammation and biliary sclerosis. This was evident even by day 9 in the BDL+vehicle-treated cohort (p<0.01 vs. sham). […] Treatment with a compound of the invention was also associated with a reduction in biliary inflammation (H&E sections, FIG. 4A) and the necro-inflammatory score (FIG. 4B).

Row | SMILES | change (decrease) in mean arterial blood pressure [1] | Kd [2] [nM] | Kd [3] [nM] | MAP (mean arterial pressure) versus sham and BDL+vehicle [4] | biliary thickening (bile duct wall thickness) ([4]; BDL mice, day 9, H&E sections and quantitative analysis, FIG. 2 and 3)
1 | COc1ccc2c(c1)CN(c1nccc(-c3nccc(/C=C/c4ccncc4)n3)n1)C2 [Ex. 1, (E)-5-Methoxy-2-(4-(2-(pyridine-4-yl)vinyl)-[2,4′-bipyrimidin]-2′-yl)isoindoline] | did not cause any change | > 30000 | 140 | not different | reduction in biliary thickening
2 | COc1ccc2c(c1)CN(c1nccc(-c3nccc(/C=C/c4ccnc5ccccc45)n3)n1)C2 [Ex. 3, (E)-4-(2-(2′-(5-Methoxyisoindolin-2-yl)-[2,4′-bipyrimidin]-4-yl)vinyl)quinoline] |  | > 30000 | > 30000 |  | 
3 | COc1ccc2c(c1)CN(c1nccc(-c3nccc(/C=C/c4ccnc5[nH]ccc45)n3)n1)C2 [Ex. 4, (E)-4-(2-(2′-(5-Methoxyisoindolin-2-yl)-[2,4′-bipyrimidin]-4-yl)vinyl)-1H-pyrrolo[2,3-b]pyridine] |  | 8000 | 1800 |  | 
4 | COc1ccc2c(c1)CN(c1nccc(-c3nccc(/C=C/c4ccnc(N)n4)n3)n1)C2 [Ex. 5, (E)-4-(2-(2′-(5-Methoxyisoindolin-2-yl)-[2,4′-bipyrimidin]-4-yl)vinyl)pyrimidin-2-amine] |  | > 30000 | 2000 |  | 
5 | Oc1ccc2c(c1)CN(c1nccc(-c3nccc(/C=C/c4ccncc4)n3)n1)C2 [Ex. 6, (E)-2-(4-(2-(Pyridin-4-yl)vinyl)-[2,4′-bipyrimidin]-2′-yl)isoindolin-5-ol] |  | > 30000 | 120 |  | 
6 | O=S(=O)(Oc1ccc2c(c1)CN(c1nccc(-c3nccc(/C=C/c4ccncc4)n3)n1)C2)C(F)(F)F [Ex. 7, (E)-2-(4-(2-(Pyridin-4-yl)vinyl)-[2,4′-bipyrimidin]-2′-yl)isoindolin-5-yl Trifluoromethanesulfonate] |  | > 30000 | 910 |  | 
7 | N#Cc1ccc2c(c1)CN(c1nccc(-c3nccc(/C=C/c4ccncc4)n3)n1)C2 [Ex. 8, (E)-2-(4-(2-(Pyridin-4-yl)vinyl)-[2,4′-bipyrimidin]-2′-yl)isoindoline-5-carbonitrile] |  | 680 | 110 |  | 
8 | CN(C)CCOc1ccc2c(c1)CN(c1nccc(-c3nccc(/C=C/c4ccncc4)n3)n1)C2 [Ex. 9, (E)-N,N-Dimethyl-2-((2-(4-(2-(pyridin-4-yl)vinyl)-[2,4′-bipyrimidin]-2′-yl)isoindolin-5-yl)oxy)ethanamine] |  | 2400 | 85 |  | 
9 | CNC(=O)COc1ccc2c(c1)CN(c1nccc(-c3nccc(/C=C/c4ccncc4)n3)n1)C2 [Ex. 11, (E)-N-Methyl-2-((2-(4-(2-(pyridin-4-yl)vinyl)-[2,4′-bipyrimidin]-2′-yl)isoindolin-5-yl)oxy)acetamide] |  | 1100 | 110 |  | 
10 | CCNC(=O)COc1ccc2c(c1)CN(c1nccc(-c3nccc(/C=C/c4ccncc4)n3)n1)C2 [Ex. 12, (E)-N-Ethyl-2-((2-(4-(2-(pyridin-4-yl)vinyl)-[2,4′-bipyrimidin]-2′-yl)isoindolin-5-yl)oxy)acetamide] |  | 15000 | 180 |  | 
11 | CC(C)NC(=O)COc1ccc2c(c1)CN(c1nccc(-c3nccc(/C=C/c4ccncc4)n3)n1)C2 [Ex. 13, (E)-N-Isopropyl-2-((2-(4-(2-(pyridin-4-yl)vinyl)-[2,4′-bipyrimidin]-2′-yl)isoindolin-5-yl)oxy)acetamide] |  | 13000 | 130 |  | 
12 | Fc1ccc2c(c1)CN(c1nccc(-c3nccc(/C=C/c4ccncc4)n3)n1)C2 [Ex. 14, (E)-5-Fluoro-2-(4-(2-(pyridine-4-yl)vinyl)-[2,4′-bipyrimidin]-2′-yl)isoindoline] |  | 26000 | 1200 |  | 
13 | O=S(=O)(c1cccc2cnccc12)N1CCCNCC1 [fasudil, reference compound] | ~26 mm Hg |  |  | decreased MAP | 

From patent publication US11542256B2, “Vinylheterocycles as Rho-associated coiled-coil kinase (ROCK) inhibitors” (ANGION BIOMEDICA CORP., priority 2017, dated 2023)
